Tests used:
[1] = administered as pills; cited from earlier work
Salmonella = test: Study 1: test for antigens against Salmonella in the blood of pigs; type: in vivo; conditions: for Relative risk: Salmonella, relative to control; for Pct. positives / Positives: Salmonella-positive blood samples; for Positives: of 126 (control) / 108 (study) samples
Procedure: A subset of the pigs in both study groups were tested for Salmonella prior to shipping out of the test and to the meat processing facility by testing for antigens against Salmonella in the blood. An inclusion rate of 60% was desired for both groups but was not reached for the study group.

[2] = Study 1: randomized trial of 0.05% zinc gluconate in pellet feed, productivity and health of pigs; conditions: for combined disease and mortality withdrawal rate / pigs treated for diarrhea during the study period: 204 pigs per group, 12 weeks
Procedure: In a randomized trial the effect of the addition of 0.05% zinc gluconate to a standard pellet feed was tested for efficacy against Salmonella, health condition of the digestive system including stomach and intestines, and productivity in pigs, and compared to an otherwise identical diet without zinc gluconate. The control group received zinc in the form of zinc oxide to the same amount as the study group.
408 pigs from a single farm were randomly partitioned into two groups of 204 pigs each and fed with either a pelleted control feed or an otherwise identical pelleted feed comprising 0.05% zinc gluconate. In order maintain comparability of control group to study group and to diminish the influence of lung disease on the mortality of the control group, both groups were twice vaccinated with Porcilis against severe lung disease.
All pigs were followed for 12 weeks starting with their inclusion into the trial and ending with their transport to a meat processing plant. For all pigs in the study data on the feed uptake, growth, eventual diseases suffered during the study period were collected as well as including the complete slaughter records of the meat processing plant into the study. Pigs were included into the trial upon reaching an entry weight of on the average 33 kg. The pigs were weighed at inclusion into the trial, after 6 weeks, and after 12 weeks. […] The pigs in the study were allowed to eat and drink freely and the access to water and dietary was unrestricted.

[3] = Test of efficacy and safety: zinc source in dry feed of domesticated pigs, daily weight gain; conditions: for Average daily weight gain: 83 days
Text: In a confirmation experiment the safety of using powdered zinc gluconate as a conventional dietary supplement in the dietary mineral supply of domesticated pigs was examined in a controlled study.
3 groups of pigs, each comprising 11 individuals were identically fed save for the source of zinc as according to Table 1. Group 1, which was the control group, was fed […] 75% zinc oxide per ton dry feed according to normal feeding recommendations. Group 2 was fed zinc gluconate as a powder. Group 3 was fed zinc gluconate and further including 100 g Micro Aid® per ton feed. The amount of zinc fed to the animals of the three study groups was identical and corresponding to 23 g zinc per ton dry feed. Micro Aid® is dietary supplement known to enhance growth and reduce ammonia excretions in domesticated pigs. It is a registered trade mark of DPI Global, 17656 Avenue 168, Porterville, Calif. 93257. Micro Aid® has a recognized effect on the growth increase of pigs on the order of 4% per 100 g added Micro Aid® per ton feed.
The daily gain of weight for each individual was registered during the trial period and the trial was terminated after 83 days. For comparison the expected weight gain of adding Micro Aid® to a feed mixture comprising one of the two zinc sources has been calculated.

[4] = Study 3: birth weight of piglets and milk production of sows; type: in vivo
Procedure: (§1) A controlled comparison study between two groups of pigs at two farms in the province of Nordjylland, Denmark, was performed, each farm having about 600 sows in production and each farm feeding the sows in the production zinc according to veterinarian recommendations of 75 ppm zinc per FU. At farm 1, the sows received zinc in the form of zinc oxide whereas at farm 2, the sows received zinc in the form of zinc gluconate.

[5] = Study 2: comparison of two farms, open wounds and footpad lesions in sows; type: in vivo
Procedure: as §1

[6] = pigs having weights between 33-65 kg
[7] = pigs weighing between 65-105 kg
[8] = pigs, 11 per group, 23 g zinc per ton dry feed

Compound	added zinc taken up by the digestive system [1] [%]	Relative risk (Salmonella)	Pct. positives (Salmonella) [%]	Positives (Salmonella)	combined disease and mortality withdrawal rate [2] [%]	pigs treated for diarrhea during the study period [2]	feeding units (FU) to achieve 1 kg of growth ([2]; average, whole trial 33-105 kg)	feeding units (FU) to achieve 1 kg of growth [2, 6]	feeding units (FU) to achieve 1 kg of growth [2, 7] [FU/kg]	Average daily weight gain [3, 8] [g/daily]	milk production of the sows ([4]; farm 2 compared to farm 1 (zinc oxide))	weight of piglets at birth ([4]; sows of farm 2)	sows suffering from lesions on their footpads ([5]; sows of farm 2, 75 ppm zinc per FU)	number of open wounds ([5]; sows, 75 ppm zinc per FU, within a month of the dietary change)	Average daily weight gain ([3]; Group 3: zinc gluconate further including 100 g Micro Aid per ton feed) [g/daily]	signs of malnourishment or increased infection levels ([3]; regular inspection by a veterinarian)
[O]=[Zn] [zinc oxide, reference compound]	20	1	30.2	38	1.7	about 15%	2,85 FU/kg	2,53 FU/kg	3.13	822						
zinc gluconate		0.56	22.2	24	1.7	about 15%	2.78 FU/kg	2,51 FU/kg	3.00	875	increased compared to the sows of farm 1	above average weight at birth	disappeared almost completely	rapid decrease in the number of open wounds	910	no signs of these conditions were observed

Reference: patent US20200268019A1, “USE OF ZINC AND COPPER GLUCONATE IN THE TREATMENT OF METHICILLIN-RESISTANT STAPHYLOCOCCUS AUREUS” (Distributors Processing, Inc., priority 2015, published 2020)
